Columns and labels:
Carbonic anhydrase 9 = Carbonic anhydrase 9 (Homo sapiens, UniProt Q16790); assay: Inhibition of GST-tagged recombinant carbonic anhydrase-9 catalytic domain (unknown origin)
Carbonic anhydrase 2 = Carbonic anhydrase 2 (Homo sapiens, UniProt P00918); assay: Inhibition of full length carbonic anhydrase-2 in human erythrocytes; assay type: cell-based
Carbonic anhydrase 1 = Carbonic anhydrase 1 (Homo sapiens, UniProt P00915); assay: Inhibition of full length carbonic anhydrase-1 in human erythrocytes; assay type: cell-based
Chain of Carbonic anhydrase 1 (P00915 whole entry): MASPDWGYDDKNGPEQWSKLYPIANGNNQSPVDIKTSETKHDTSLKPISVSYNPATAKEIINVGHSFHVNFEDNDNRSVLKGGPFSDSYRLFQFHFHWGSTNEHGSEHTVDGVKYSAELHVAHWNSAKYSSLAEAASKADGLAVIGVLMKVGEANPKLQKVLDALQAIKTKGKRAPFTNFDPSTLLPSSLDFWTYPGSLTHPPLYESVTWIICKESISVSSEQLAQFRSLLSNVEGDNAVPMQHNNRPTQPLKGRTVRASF

SMILES | IC50 (Carbonic anhydrase 9) [nM] | IC50 (Carbonic anhydrase 2) [nM] | IC50 (Carbonic anhydrase 1) [nM]
COc1ccc(Cl)cc1CNCCc1ccc(S(N)(=O)=O)cc1 | 68.5 |  | 
Cc1ccc(N2NC(=O)/C(=C/c3cccn3-c3ccc(S(N)(=O)=O)cc3)C2=O)cc1 | 14.9 |  | 
NS(=O)(=O)c1ccc(NC(=O)c2cccc(N3C(=O)CCC3=O)c2)cc1 | 21.6 |  | 
CC1=NN(c2ccc(S(N)(=O)=O)cc2)C(=O)/C1=C\C=C\c1ccccc1 | 19.1 |  | 
NS(=O)(=O)c1ccc(CNC2CC(=O)N(c3cccc(Br)c3)C2=O)cc1 (stereo not given) | 199 |  | 
NS(=O)(=O)c1ccc(NC(=S)NC(=O)c2ccccc2)cc1 | 2.86 |  | 
NS(=O)(=O)c1ccc(/N=C2/NC(=O)/C(=C/c3cc(O)ccc3Br)S2)cc1 | 4.53 |  | 
NS(=O)(=O)c1ccc(-n2cccc2/C=C2/C(=O)NN(c3ccc(F)cc3)C2=O)cc1 | 3.11 | 42 | 
NS(=O)(=O)c1cccc(NS(=O)(=O)c2ccc3c4c(cccc24)C(=O)N3)c1 | 28.4 |  | 
NS(=O)(=O)c1cc(C(=O)NCCOc2ccccc2)c(Cl)cc1Cl | 10.4 | 10.6 | 16.7
CC1=NN(c2cccc(S(N)(=O)=O)c2)C(=O)C1 | 588 | 809 | 1190
COc1ccc(CNc2ccc(S(N)(=O)=O)cc2)cc1OC | 342 |  | 
NS(=O)(=O)c1ccc(CCNCc2cccc3ccccc23)cc1 | 18.8 | 153 | 173

Reference: ChEMBL document CHEMBL2390891, “Discovery of new potent inhibitors for carbonic anhydrase IX by structure-based virtual screening” (Bioorg Med Chem Lett, 2013)
